Data as given in US9346815B2, “5-chloro-2-difluoromethoxyphenyl pyrazolopyrimidine compounds, compositions and methods of use thereof” (Genentech, Inc., priority 2014, dated 2016).

Tests used:
[1] = test system: JAK1-dependent STAT6 phosphorylation downstream of IL-13 stimulation in BEAS-2B human bronchial epithelial cells; experiment: JAK1 pathway assay in BEAS-2B cells (IL-13-pSTAT6, MSD); type: cell-based; conditions: read-out: IL13-pSTAT6 EC50 (uM)_BEAS-2B
In short: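 BEAS-2B: complete growth medium, compound 1 hr at 37° C. TF-1: GM-CSF-starved overnight, serum-free OptiMEM, compound 30 min.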

[2] = target: isolated recombinant JAK1 kinase domain (Homo sapiens (Human), UniProt P23458); experiment: JAK1 enzyme assay (Caliper LabChip, peptide phosphorylation); type: biochemical; conditions: isolated recombinant JAK1 kinase domain, 25 μM ATP
Chain of isolated recombinant JAK1 kinase domain (P23458 875-1153): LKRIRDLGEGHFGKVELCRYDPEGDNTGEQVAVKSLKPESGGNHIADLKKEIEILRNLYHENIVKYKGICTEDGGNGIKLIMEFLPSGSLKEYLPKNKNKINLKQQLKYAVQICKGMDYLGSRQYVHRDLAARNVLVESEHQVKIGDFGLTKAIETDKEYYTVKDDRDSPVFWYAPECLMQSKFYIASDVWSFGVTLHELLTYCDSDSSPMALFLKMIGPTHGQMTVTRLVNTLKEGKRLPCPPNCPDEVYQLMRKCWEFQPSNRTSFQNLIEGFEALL

[3] = target: isolated recombinant JAK2 kinase domain (Homo sapiens (Human), UniProt O60674); experiment: JAK2 enzyme assay (Caliper LabChip, peptide phosphorylation); type: biochemical; conditions: 25 μM ATP
Chain of isolated recombinant JAK2 kinase domain (O60674 849-1124): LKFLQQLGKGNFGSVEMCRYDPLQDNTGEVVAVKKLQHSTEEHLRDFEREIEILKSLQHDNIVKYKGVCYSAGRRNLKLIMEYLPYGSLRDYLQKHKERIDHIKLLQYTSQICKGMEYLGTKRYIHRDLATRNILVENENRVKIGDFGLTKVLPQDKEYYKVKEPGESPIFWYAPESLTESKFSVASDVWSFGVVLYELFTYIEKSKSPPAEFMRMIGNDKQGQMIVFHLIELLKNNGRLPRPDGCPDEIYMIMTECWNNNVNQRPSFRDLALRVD

Ki [2]	Ki [3]	SMILES	EC50 [1]
4.15 nM	1.21 nM	O=C(O)CN(CCn1cc(NC(=O)c2cnn3cccnc23)c(-c2cc(Cl)ccc2OC(F)F)n1)Cc1cccnc1 [Example 363, 2-[(2-[3-[5-chloro-2-(difluoromethoxy)phenyl]-4-[pyrazolo[1,5-a]pyrimidine-3-amido]-1H-pyrazol-1-yl]ethyl)(pyridin-3-ylmethyl)amino]acetic acid]	3.78 µM
0.41 nM	0.55 nM	O=C(O)CNC1CCN(C(=O)Cn2cc(NC(=O)c3cnn4cccnc34)c(-c3cc(Cl)ccc3OC(F)F)n2)CC1 [Example 365, 2-[[1-(2-[3-[5-chloro-2-(difluoromethoxy)phenyl]-4-[pyrazolo[1,5-a]pyrimidine-3-amido]-1H-pyrazol-1-yl]acetyl)piperidin-4-yl]amino]acetic acid]	7.56 µM
1.07 nM	0.99 nM	CCOC(=O)CN1CCC(n2cc(NC(=O)c3cnn4cccnc34)c(-c3cc(Cl)ccc3OC(F)F)n2)CC1 [Example 366, ethyl 2-(4-[3-[5-chloro-2-(difluoromethoxy)phenyl]-4-[pyrazolo[1,5-a]pyrimidine-3-amido]-1H-pyrazol-1-yl]piperidin-1-yl)acetate]	0.312 µM
0.83 nM	0.5 nM	O=C(Nc1cn(CCNCc2ncco2)nc1-c1cc(Cl)ccc1OC(F)F)c1cnn2cccnc12 [Example 367, N-[3-[5-chloro-2-(difluoromethoxy)phenyl]-1-[2-[(1,3-oxazol-2-ylmethyl)amino]ethyl]-1H-pyrazol-4-yl]pyrazolo[1,5-a]pyrimidine-3-carboxamide]	0.0352 µM
1.13 nM	1.25 nM	CN[C@@H](C)Cn1cc(NC(=O)c2cnn3cccnc23)c(-c2cc(Cl)ccc2OC(F)F)n1 [Example 369, N-[3-[5-chloro-2-(difluoromethoxy)phenyl]-1-[(2S)-2-(methylamino)propyl]-1H-pyrazol-4-yl]pyrazolo[1,5-a]pyrimidine-3-carboxamide]	0.0093 µM
1.37 nM	1.37 nM	C[C@@H](Cn1cc(NC(=O)c2cnn3cccnc23)c(-c2cc(Cl)ccc2OC(F)F)n1)N(C)C [Example 370, N-[3-[5-chloro-2-(difluoromethoxy)phenyl]-1-[(2S)-2-(dimethylamino)propyl]-1H-pyrazol-4-yl]pyrazolo[1,5-a]pyrimidine-3-carboxamide]	0.0402 µM
0.7 nM	1.24 nM	CC(C)N1CCN(C(=O)Cn2cc(NC(=O)c3cnn4cccnc34)c(-c3cc(Cl)ccc3OC(F)F)n2)CC1 [Example 373, N-[3-[5-chloro-2-(difluoromethoxy)phenyl]-1-[2-oxo-2-[4-(propan-2-yl)piperazin-1-yl]ethyl]-1H-pyrazol-4-yl]pyrazolo[1,5-a]pyrimidine-3-carboxamide]	0.0342 µM
0.45 nM	0.88 nM	O=C(Nc1cn(CC(=O)N2CCN(CC3CC3)CC2)nc1-c1cc(Cl)ccc1OC(F)F)c1cnn2cccnc12 [Example 374, N-[3-[5-chloro-2-(difluoromethoxy)phenyl]-1-[2-[4-(cyclopropylmethyl)piperazin-1-yl]-2-oxoethyl]-1H-pyrazol-4-yl]pyrazolo[1,5-a]pyrimidine-3-carboxamide]	0.0295 µM
0.75 nM	1.54 nM	CC1CN(C)CCN1C(=O)Cn1cc(NC(=O)c2cnn3cccnc23)c(-c2cc(Cl)ccc2OC(F)F)n1 (stereo not drawn) [Example 375, N-[3-[5-chloro-2-(difluoromethoxy)phenyl]-1-[2-(2,4-dimethylpiperazin-1-yl)-2-oxoethyl]-1H-pyrazol-4-yl]pyrazolo[1,5-a]pyrimidine-3-carboxamide]	0.0716 µM
0.66 nM	1.03 nM	CC1CN(C(=O)Cn2cc(NC(=O)c3cnn4cccnc34)c(-c3cc(Cl)ccc3OC(F)F)n2)CCN1C (stereo not drawn) [Example 376, N-[3-[5-chloro-2-(difluoromethoxy)phenyl]-1-[2-(3,4-dimethylpiperazin-1-yl)-2-oxoethyl]-1H-pyrazol-4-yl]pyrazolo[1,5-a]pyrimidine-3-carboxamide]	0.0325 µM
0.56 nM	1.3 nM	CN1CCN(C(=O)Cn2cc(NC(=O)c3cnn4cccnc34)c(-c3cc(Cl)ccc3OC(F)F)n2)C(C)(C)C1 [Example 377, N-[3-[5-chloro-2-(difluoromethoxy)phenyl]-1-[2-oxo-2-(2,2,4-trimethylpiperazin-1-yl)ethyl]-1H-pyrazol-4-yl]pyrazolo[1,5-a]pyrimidine-3-carboxamide]	0.0528 µM
0.93 nM	1.6 nM	CN1CCN(C(=O)Cn2cc(NC(=O)c3cnn4cccnc34)c(-c3cc(Cl)ccc3OC(F)F)n2)CC1(C)C [Example 378, N-[3-[5-chloro-2-(difluoromethoxy)phenyl]-1-[2-oxo-2-(3,3,4-trimethylpiperazin-1-yl)ethyl]-1H-pyrazol-4-yl]pyrazolo[1,5-a]pyrimidine-3-carboxamide]	0.0874 µM
0.86 nM	2.33 nM	CN(C)CCN1CCN(C(=O)Cn2cc(NC(=O)c3cnn4cccnc34)c(-c3cc(Cl)ccc3OC(F)F)n2)CC1 [Example 379, N-[3-[5-chloro-2-(difluoromethoxy)phenyl]-1-(2-[4-[2-(dimethylamino)ethyl]piperazin-1-yl]-2-oxoethyl)-1H-pyrazol-4-yl]pyrazolo[1,5-a]pyrimidine-3-carboxamide]	0.0755 µM
0.3 nM	0.68 nM	O=C(Nc1cn(CC(=O)N2CCN(Cc3ncco3)CC2)nc1-c1cc(Cl)ccc1OC(F)F)c1cnn2cccnc12 [Example 380, N-[3-[5-chloro-2-(difluoromethoxy)phenyl]-1-[2-[4-(1,3-oxazol-2-ylmethyl)piperazin-1-yl]-2-oxoethyl]-1H-pyrazol-4-yl]pyrazolo[1,5-a]pyrimidine-3-carboxamide]	0.0481 µM
1.07 nM	0.55 nM	O=C1CCC(CNCCn2cc(NC(=O)c3cnn4cccnc34)c(-c3cc(Cl)ccc3OC(F)F)n2)O1 (stereo not drawn) [Example 381, N-[3-[5-chloro-2-(difluoromethoxy)phenyl]-1-(2-[[(5-oxooxolan-2-yl)methyl]amino]ethyl)-1H-pyrazol-4-yl]pyrazolo[1,5-a]pyrimidine-3-carboxamide]	0.0298 µM
0.34 nM	0.75 nM	O=C1CCC(CN2CCN(C(=O)Cn3cc(NC(=O)c4cnn5cccnc45)c(-c4cc(Cl)ccc4OC(F)F)n3)CC2)O1 (stereo not drawn) [Example 382, N-[3-[5-chloro-2-(difluoromethoxy)phenyl]-1-(2-oxo-2-[4-[(5-oxooxolan-2-yl)methyl]piperazin-1-yl]ethyl)-1H-pyrazol-4-yl]pyrazolo[1,5-a]pyrimidine-3-carboxamide]	0.0257 µM
0.39 nM	0.66 nM	CNC(=O)CN1CCN(C(=O)Cn2cc(NC(=O)c3cnn4cccnc34)c(-c3cc(Cl)ccc3OC(F)F)n2)CC1 [Example 383, N-[3-[5-chloro-2-(difluoromethoxy)phenyl]-1-(2-[4-[(methylcarbamoyl)methyl]piperazin-1-yl]-2-oxoethyl)-1H-pyrazol-4-yl]pyrazolo[1,5-a]pyrimidine-3-carboxamide]	0.277 µM
1.06 nM	0.56 nM	COC(=O)CNCCn1cc(NC(=O)c2cnn3cccnc23)c(-c2cc(Cl)ccc2OC(F)F)n1 [Example 386, methyl 2-[(2-[3-[5-chloro-2-(difluoromethoxy)phenyl]-4-[pyrazolo[1,5-a]pyrimidine-3-amido]-1H-pyrazol-1-yl]ethyl)amino]acetate]	0.0297 µM
1.24 nM	0.46 nM	COC(=O)[C@@H](N)CCn1cc(NC(=O)c2cnn3cccnc23)c(-c2cc(Cl)ccc2OC(F)F)n1 [Example 387, methyl (2S)-2-amino-4-[3-[5-chloro-2-(difluoromethoxy)phenyl]-4-[pyrazolo[1,5-a]pyrimidine-3-amido]-1H-pyrazol-1-yl]butanoate]	0.0107 µM
0.51 nM	2.42 nM	CN1CCC(COC(=O)C2CCN(C(=O)Cn3cc(NC(=O)c4cnn5cccnc45)c(-c4cc(Cl)ccc4OC(F)F)n3)CC2)CC1 [Example 388, (1-methylpiperidin-4-yl)methyl 1-(2-[3-[5-chloro-2-(difluoromethoxy)phenyl]-4-[pyrazolo[1,5-a]pyrimidine-3-amido]-1H-pyrazol-1-yl]acetyl)piperidine-4-carboxylate]	0.0241 µM
0.4 nM	2.16 nM	CN1CCC(COC(=O)C2(C)CCN(C(=O)Cn3cc(NC(=O)c4cnn5cccnc45)c(-c4cc(Cl)ccc4OC(F)F)n3)CC2)CC1 [Example 389, (1-methylpiperidin-4-yl)methyl 1-(2-[3-[5-chloro-2-(difluoromethoxy)phenyl]-4-[pyrazolo[1,5-a]pyrimidine-3-amido]-1H-pyrazol-1-yl]acetyl)-4-methylpiperidine-4-carboxylate]	0.0175 µM
1.28 nM	0.84 nM	CN(CCn1cc(NC(=O)c2cnn3cccnc23)c(-c2cc(Cl)ccc2OC(F)F)n1)CC1CCC(=O)O1 (stereo not drawn) [Example 390, N-[3-[5-chloro-2-(difluoromethoxy)phenyl]-1-(2-[methyl[(5-oxooxolan-2-yl)methyl]amino]ethyl)-1H-pyrazol-4-yl]pyrazolo[1,5-a]pyrimidine-3-carboxamide]	0.0424 µM
0.91 nM	2.49 nM	CCOC(=O)CCN(C)C1CCN(C(=O)Cn2cc(NC(=O)c3cnn4cccnc34)c(-c3cc(Cl)ccc3OC(F)F)n2)CC1 [Example 391, ethyl 3-[[1-(2-[3-[5-chloro-2-(difluoromethoxy)phenyl]-4-[pyrazolo[1,5-a]pyrimidine-3-amido]-1H-pyrazol-1-yl]acetyl)piperidin-4-yl](methyl)amino]propanoate]	0.0206 µM
